Results on two compounds are retold here after patent EP0070084A2, “Imidazoline derivatives” (BEECHAM GROUP PLC, priority 1981, dated 1983).

Where a name gives a salt, the structure may show the parent alone. Read-outs that look alike come from different tables or passages of the source.

The test system of one test is neonatal mice. The test can be described thus: Sedative activity, observation of orally dosed mice. It is filed as in vivo. As to conditions: 6 neonatal mice, at 1 mg/kg and at 10 mg/kg, observed for 2 hours versus control mice. Here is the method: m-amino Clonidine was administered orally to 6 neonatal mice at 1 mg/kg and at 10 mg/kgwhichwere observed for 2 hours in comparison with control mice.

Another test deals with piglets. Type of test: in vivo. As to conditions: groups of 2 piglets; for MEAN SCOUR SCORE ± SEM: score 0-3.
Setting [1] is: 0.1 mg/kg p.o., duration of test 6 h.
The mark [2] stands for this setting: 0.1 mg/kg p.o., duration of test 12 h.
The mark [3] stands for this setting: 0.2 mg/kg p.o., duration of test 6 h.

Take `Nc1ccc(Cl)c(N=C2NCCN2)c1Cl` [Example 3, 2-(3-amino-2,6-dichlorophenylimino) imidazolidine]: the sedation entry in the test on neonatal mice is “marked sedation”.
Regarding `Clc1cc(NCc2ccccc2)cc(Cl)c1N=C1NCCN1` [Example 4, 2-(4-Eenzylamino-2,6-dichlorophenylimino)imidazolidine_ hydrochloride], the “o/o INHIBITION OF SCOUR” value in the test with piglets (setting [1]) is 15 o/o; in the test with piglets (setting [2]), 10 o/o; with piglets (setting [3]) it was 41 o/o; with piglets (0.2 mg/kg p.o., duration of test 12 h, P 0.05) it was 43 o/o; with piglets (1 mg/kg p.o., duration of test 6 h, P 0.01), 85 o/o; in the test on piglets (1 mg/kg p.o., duration of test 12 h, P 0.05), 48 o/o. Also, the “MEAN SCOUR SCORE ± SEM” value in the test on piglets (setting [1]) is 2.3 ± 0.5; in the test on piglets (setting [2]), 1.9 ± 0.2; in the test on piglets (setting [3]), 1.6 ± 0.1; with piglets (0.2 mg/kg p.o., duration of test 12 h) it was 1.2 ± 0.2; in the test on piglets (1 mg/kg p.o., duration of test 6 h), 0.4 ± 0.4; with piglets (1 mg/kg p.o., duration of test 12 h), 1.1 ± 0.2.
